The values below come from ChEMBL document CHEMBL5543142, “Discovery of YFJ-36: Design, Synthesis, and Antibacterial Activities of Catechol-Conjugated β-Lactams against Gram-Negative Bacteria” (J Med Chem, 2024).

Data set [1] relates to Escherichia coli. The experiment in a line: Antibacterial activity against ESBL-producing multidrug-resistant Escherichia coli clinical isolate 14-1 assessed as inhibition of bacterial growth incubated for 18 to 20 hrs by two fold serial dilution assay. It counts as functional. The note with it: time 18-20 hrs.
The test system of data set [2] is Escherichia coli. Kind of data set: Antibacterial activity against ESBL-producing multidrug-resistant Escherichia coli clinical isolate 14-2 assessed as inhibition of bacterial growth incubated for 18 to 20 hrs by two fold serial dilution assay. It counts as functional. The settings on record: time 18-20 hrs.
Data set [3] has as its system Escherichia coli. Kind of data set: Antibacterial activity against ESBL-producing multidrug-resistant Escherichia coli clinical isolate 14-4 assessed as inhibition of bacterial growth incubated for 18 to 20 hrs by two fold serial dilution assay. It counts as functional. The note with it: time 18-20 hrs.
Data set [4] has as its system Klebsiella pneumoniae. The experiment in a line: Antibacterial activity against KPC-2 producing multidrug-resistant Klebsiella pneumoniae clinical isolate 15-1 assessed as inhibition of bacterial growth incubated for 18 to 20 hrs by two fold serial dilution assay. In kind it is functional. The note with it: time 18-20 hrs.
In data set [5] the test system is Klebsiella pneumoniae. The experiment in a line: Antibacterial activity against KPC-2 producing multidrug-resistant Klebsiella pneumoniae clinical isolate 15-2 assessed as inhibition of bacterial growth incubated for 18 to 20 hrs by two fold serial dilution assay. In kind it is functional. The settings on record: time 18-20 hrs.
Data set [6] has as its system Klebsiella pneumoniae. Kind of data set: Antibacterial activity against KPC-2 producing multidrug-resistant Klebsiella pneumoniae clinical isolate 15-5 assessed as inhibition of bacterial growth incubated for 18 to 20 hrs by two fold serial dilution assay. In kind it is functional. The settings on record: time 18-20 hrs.
In data set [7] the test system is Escherichia coli. The experiment in a line: Antibacterial activity against Escherichia coli ATCC35218 assessed as inhibition of bacterial growth incubated for 18 to 20 hrs by two fold serial dilution assay. In kind it is functional. The note with it: time 18-20 hrs.
Data set [8] concerns Pseudomonas aeruginosa. The experiment in a line: Antibacterial activity against IMP-4 producing multidrug-resistant Pseudomonas aeruginosa clinical isolate 17-13 assessed as inhibition of bacterial growth incubated for 18 to 20 hrs by two fold serial dilution assay. It counts as functional. The note with it: time 18-20 hrs.
Data set [9] has as its system Pseudomonas aeruginosa. Kind of data set: Antibacterial activity against IMP-4 producing multidrug-resistant Pseudomonas aeruginosa clinical isolate 17-1 assessed as inhibition of bacterial growth incubated for 18 to 20 hrs by two fold serial dilution assay. The settings on record: time 18-20 hrs. It counts as functional.
In data set [10] the test system is Pseudomonas aeruginosa. Kind of data set: Antibacterial activity against IMP-4 producing multidrug-resistant Pseudomonas aeruginosa clinical isolate 19-17 assessed as inhibition of bacterial growth incubated for 18 to 20 hrs by two fold serial dilution assay. The settings on record: time 18-20 hrs. It counts as functional.
Data set [11] has as its system Acinetobacter baumannii. Kind of data set: Antibacterial activity against OXA-23 producing multidrug-resistant Acinetobacter baumannii clinical isolate 17-2 assessed as inhibition of bacterial growth incubated for 18 to 20 hrs by two fold serial dilution assay. In kind it is functional. The settings on record: time 18-20 hrs.
For data set [12], the system named is Acinetobacter baumannii. The experiment in a line: Antibacterial activity against OXA-23 producing multidrug-resistant Acinetobacter baumannii clinical isolate 17-3 assessed as inhibition of bacterial growth incubated for 18 to 20 hrs by two fold serial dilution assay. It counts as functional. The note with it: time 18-20 hrs.
Data set [13] has as its system Pseudomonas aeruginosa. The experiment in a line: Antibacterial activity against IMP-4 producing multidrug-resistant Pseudomonas aeruginosa clinical isolate 19-5 assessed as inhibition of bacterial growth incubated for 18 to 20 hrs by two fold serial dilution assay. In kind it is functional. The note with it: time 18-20 hrs.
For data set [14], the system named is Pseudomonas aeruginosa. Kind of data set: Antibacterial activity against IMP-4 producing multidrug-resistant Pseudomonas aeruginosa clinical isolate 19-1 assessed as inhibition of bacterial growth incubated for 18 to 20 hrs by two fold serial dilution assay. It counts as functional. The settings on record: time 18-20 hrs.
The subject of data set [15] is Acinetobacter baumannii. The experiment in a line: Antibacterial activity against OXA-23 producing multidrug-resistant Acinetobacter baumannii clinical isolate 17-5 assessed as inhibition of bacterial growth incubated for 18 to 20 hrs by two fold serial dilution assay. The settings on record: time 18-20 hrs. It counts as functional.
Data set [16] concerns Acinetobacter baumannii. Kind of data set: Antibacterial activity against OXA-23 producing multidrug-resistant Acinetobacter baumannii clinical isolate 17-6 assessed as inhibition of bacterial growth incubated for 18 to 20 hrs by two fold serial dilution assay. It counts as functional. The note with it: time 18-20 hrs.
Data set [17] has as its system Acinetobacter baumannii. The experiment in a line: Antibacterial activity against OXA-23 producing multidrug-resistant Acinetobacter baumannii clinical isolate 17-7 assessed as inhibition of bacterial growth incubated for 18 to 20 hrs by two fold serial dilution assay. The settings on record: time 18-20 hrs. It counts as functional.
For data set [18], the system named is Acinetobacter baumannii. The experiment in a line: Antibacterial activity against OXA-23 producing multidrug-resistant Acinetobacter baumannii clinical isolate 17-8 assessed as inhibition of bacterial growth incubated for 18 to 20 hrs by two fold serial dilution assay. In kind it is functional. The settings on record: time 18-20 hrs.
Data set [19] deals with Klebsiella pneumoniae. The experiment in a line: Antibacterial activity against KPC-2 producing multidrug-resistant Klebsiella pneumoniae clinical isolate 15-3 assessed as inhibition of bacterial growth incubated for 18 to 20 hrs by two fold serial dilution assay. The note with it: time 18-20 hrs. In kind it is functional.
In data set [20] the test system is Escherichia coli. Kind of data set: Antibacterial activity against Escherichia coli NCTC-13353 assessed as inhibition of bacterial growth incubated for 18 to 20 hrs in presence of CAMHB medium by two fold serial dilution assay. It counts as functional. The settings on record: time 18-20 hrs.
Data set [21] deals with Escherichia coli. The experiment in a line: Antibacterial activity against Escherichia coli ATCC-35218 assessed as inhibition of bacterial growth incubated for 18 to 20 hrs in presence of CAMHB medium by two fold serial dilution assay. It counts as functional. The settings on record: time 18-20 hrs.
For data set [22], the system named is Klebsiella pneumoniae. The experiment in a line: Antibacterial activity against Klebsiella pneumoniae ATCC BAA-1898 assessed as inhibition of bacterial growth incubated for 18 to 20 hrs in presence of CAMHB medium by two fold serial dilution assay. In kind it is functional. The note with it: time 18-20 hrs.
For data set [23], the system named is Escherichia coli. The experiment in a line: Antibacterial activity against Escherichia coli NCTC-13353 assessed as inhibition of bacterial growth incubated for 18 to 20 hrs in presence of iron-depleted CAMHB medium by two fold serial dilution assay. It counts as functional. The settings on record: time 18-20 hrs.
The subject of data set [24] is Escherichia coli. The experiment in a line: Antibacterial activity against Escherichia coli ATCC-35218 assessed as inhibition of bacterial growth incubated for 18 to 20 hrs in presence of iron-depleted CAMHB medium by two fold serial dilution assay. It counts as functional. The note with it: time 18-20 hrs.
In data set [25] the test system is Klebsiella pneumoniae. Kind of data set: Antibacterial activity against Klebsiella pneumoniae ATCC BAA-1898 assessed as inhibition of bacterial growth incubated for 18 to 20 hrs in presence of iron-depleted CAMHB medium by two fold serial dilution assay. The note with it: time 18-20 hrs. It counts as functional.
Data set [26] addresses hERG (KCNH2) (Homo sapiens, UniProt Q12809). Kind of data set: Inhibition of hERG at 40 uM by whole cell Qpatch assay relative to control. It counts as toxicity.
Data set [27] addresses Voltage-gated inwardly rectifying potassium channel KCNH2 (Homo sapiens, UniProt Q12809). Kind of data set: Inhibition of hERG by whole cell Qpatch assay. In kind it is toxicity.
A short description of data set [28]: AUC (0 to infinity) in ICR mouse at 20 mg/kg,iv administration measured upto 4 hrs by LC-MS/MS analysis. In kind it is ADME, organism-based. The note with it: in vivo.
A short description of data set [29]: Clearance in ICR mouse at 20 mg/kg,iv administration measured upto 4 hrs by LC-MS/MS analysis. It counts as ADME, organism-based. The note with it: in vivo.
A short description of data set [30]: Half life in ICR mouse at 20 mg/kg,iv administration measured upto 4 hrs by LC-MS/MS analysis. It counts as ADME, organism-based. The settings on record: in vivo.
A short description of data set [31]: MRT in ICR mouse at 20 mg/kg,iv administration measured upto 4 hrs by LC-MS/MS analysis. In kind it is ADME, organism-based. The settings on record: in vivo.
Data set [32] can be described thus: Volume of distribution at steady state in ICR mouse at 20 mg/kg,iv administration measured upto 4 hrs by LC-MS/MS analysis. In kind it is ADME, organism-based. The note with it: in vivo, read-out: Vdss.

Sequence of hERG (KCNH2) (Q12809 whole entry): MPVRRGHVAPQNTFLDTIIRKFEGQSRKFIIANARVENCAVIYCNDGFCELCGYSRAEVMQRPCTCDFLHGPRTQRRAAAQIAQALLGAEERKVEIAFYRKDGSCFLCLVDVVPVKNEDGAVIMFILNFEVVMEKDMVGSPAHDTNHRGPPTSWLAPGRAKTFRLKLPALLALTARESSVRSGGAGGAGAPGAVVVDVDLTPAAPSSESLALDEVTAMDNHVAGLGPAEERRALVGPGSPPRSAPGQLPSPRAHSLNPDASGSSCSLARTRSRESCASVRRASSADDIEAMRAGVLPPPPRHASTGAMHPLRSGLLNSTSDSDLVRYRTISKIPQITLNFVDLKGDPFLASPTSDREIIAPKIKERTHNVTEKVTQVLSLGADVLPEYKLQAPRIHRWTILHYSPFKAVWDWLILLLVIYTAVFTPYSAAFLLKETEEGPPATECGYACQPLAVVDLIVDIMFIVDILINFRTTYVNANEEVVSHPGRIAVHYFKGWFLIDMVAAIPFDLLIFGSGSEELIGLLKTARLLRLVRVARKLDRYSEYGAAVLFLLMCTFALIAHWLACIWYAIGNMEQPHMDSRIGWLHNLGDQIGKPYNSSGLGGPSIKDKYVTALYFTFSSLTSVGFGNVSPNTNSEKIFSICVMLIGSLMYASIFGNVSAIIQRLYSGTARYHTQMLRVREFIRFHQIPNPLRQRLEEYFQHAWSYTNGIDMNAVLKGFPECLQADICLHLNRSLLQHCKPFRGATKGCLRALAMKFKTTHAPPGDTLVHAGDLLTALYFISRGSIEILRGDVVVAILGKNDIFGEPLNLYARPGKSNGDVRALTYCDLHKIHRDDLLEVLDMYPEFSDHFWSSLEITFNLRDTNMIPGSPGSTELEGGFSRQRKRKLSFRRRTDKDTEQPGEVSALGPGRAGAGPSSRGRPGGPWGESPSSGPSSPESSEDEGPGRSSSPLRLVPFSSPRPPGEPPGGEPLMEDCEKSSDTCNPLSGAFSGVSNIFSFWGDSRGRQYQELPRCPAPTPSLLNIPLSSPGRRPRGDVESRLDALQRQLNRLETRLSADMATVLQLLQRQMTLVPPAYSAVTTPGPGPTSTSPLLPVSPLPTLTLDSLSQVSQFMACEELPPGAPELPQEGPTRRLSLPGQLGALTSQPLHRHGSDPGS
Sequence of Voltage-gated inwardly rectifying potassium channel KCNH2 (Q12809 whole entry): as above

With `Nc1nc(/C(=N/O[C@H](C(=O)O)C2CCC(F)(F)CC2)C(=O)N[C@@H]2C(=O)N3C(C(=O)O)=C(CSCCNC(=O)c4ccc(O)c(O)c4Cl)CS[C@H]23)cs1.O=C(O)C(F)(F)F`, the MIC in data set [1] was determined as 0.25 µg/mL; in data set [2] it was 1 µg/mL; in data set [3], 0.125 µg/mL; in data set [4], 0.25 µg/mL; in data set [5] it was 1 µg/mL; in [6], 1 µg/mL. For the same compound, the MIC in data set [7] stood at 0.125 µg/mL; in data set [8] it was 0.125 µg/mL; in data set [9], 64 µg/mL; in data set [10] it was 0.25 µg/mL; in [11] it was 0.5 µg/mL; in [12], 0.5 µg/mL. Moreover, the MIC was found to be 2 µg/mL in [13]; 8 µg/mL in data set [14]; 0.25 µg/mL in data set [15]; 0.5 µg/mL in [16]; 0.5 µg/mL in data set [17]; 1 µg/mL in data set [18]. Also, the MIC is 0.25 µg/mL in data set [19]; 1 µg/mL in data set [20]; 2 µg/mL in [21]; 8 µg/mL in [22]; 1 µg/mL in data set [23]; 0.5 µg/mL in data set [24]. Moreover, the MIC in data set [25] came out at 2 µg/mL. Also, the inhibition at 40 µM in [26] was 23.8%. The compound also returned a 50% inhibitory concentration (IC50) in [27] greater than 40 µM.

In data set [28], `Cc1ccc(S(=O)(=O)O)cc1.Nc1nc(/C(=N/O[C@@H](C(=O)O)C2CCC(F)(F)CC2)C(=O)N[C@@H]2C(=O)N3C(C(=O)O)=C(CSCCNC(=O)c4ccc(O)c(O)c4Cl)CS[C@H]23)cs1` displayed an AUC(0-inf) of 2160 ng·h/mL. In data set [29], this compound yielded a clearance of 160 mL/min/kg. For the same compound, in data set [30], the half-life is 19.8 min. This compound also came in with an MRT in data set [31] of 9 min. Moreover, in data set [32], the Vd is 1.44 L/kg.
